From patent US20240287052A1, “NOVEL OXAZOLE DERIVATIVE AND PHARMACEUTICAL COMPOSITION FOR PREVENTING OR TREATING ALLERGIC DISEASES COMPRISING THE SAME” (AZCURIS CO., LTD., priority 2021, published 2024)
Like-named read-outs stand apart in the source and are kept apart here.

Target: T1, IL33 and ST2 binding (Homo sapiens, UniProt O95760)
T1 sequence (O95760 112-270 limits assumed): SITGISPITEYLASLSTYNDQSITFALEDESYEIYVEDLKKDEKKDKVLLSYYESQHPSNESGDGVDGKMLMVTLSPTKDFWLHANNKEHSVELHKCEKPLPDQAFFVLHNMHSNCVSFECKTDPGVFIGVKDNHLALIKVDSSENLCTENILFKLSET
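Also: plate ELISA with coated Flag-tagged human IL-33 and His-tagged human ST2, bound ST2 detected by anti-His HRP and TMB absorbance at 450 nm, 2 h compound incubation.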

Row | SMILES | inhibition (30 µM) [%] | inhibition (100 µM) [%]
1 | CN(C)CCN1CCN(C(=O)c2nc(-c3ccc(F)cc3)oc2-c2ccccc2[N+](=O)[O-])CC1 [Compound 228, (4-(2-(Dimethylamino)ethyl)piperazin-1-yl)(2-(4-fluorophenyl)-5-(2-nitrophenyl)oxazol-4-yl)methanone] | 24 | 43
2 | CN1CCN(CCNC(=O)c2nc(-c3ccc(C(C)(C)C)cc3)oc2-c2ccccc2)CC1 [Compound 266, 2-(4-(tert-butyl)phenyl)-N-(2-(4-methylpiperazin-1-yl)ethyl)-5-phenyloxazole-4-carboxamide] | -29 | 10
3 | CCOC(=O)c1nc(-c2ccc3ccccc3c2)oc1-c1ccccc1[N+](=O)[O-] [Compound 84, Ethyl 2-(naphthalen-2-yl)-5-(2-nitrophenyl)oxazole-4-carboxylate] | 20 | 54
4 | CN1CCN(C(=O)c2nc(-c3ccc(C(F)(F)F)cc3)oc2-c2ccccc2[N+](=O)[O-])CC1 [Compound 155, (4-Methylpiperazin-1-yl)(5-(2-nitrophenyl)-2-(4-(trifluoromethyl)phenyl)oxazol-4-yl)methanone] | -31 | -18
5 | O=C(c1nc(-c2ccc(C(F)(F)F)cc2)oc1-c1ccccc1[N+](=O)[O-])N1CCCC1 [Compound 138, (5-(2-Nitrophenyl)-2-(4-(trifluoromethyl)phenyl)oxazol-4-yl)(pyrrolidin-1-yl)methanone] | 6 | 11
6 | CN(C)CCNC(=O)c1nc(-c2ccc(OC(F)(F)F)cc2)oc1-c1ccccc1[N+](=O)[O-] [Compound 205, N-(2-(Dimethylamino)ethyl)-5-(2-nitrophenyl)-2-(4-(trifluoromethoxy)phenyl)oxazole-4-carboxamide] | -11 | 4
7 | O=C(c1nc(-c2ccc(C(F)(F)F)cc2)oc1-c1ccccc1[N+](=O)[O-])N1CCOCC1 [Compound 156, Morpholino(5-(2-nitrophenyl)-2-(4-(trifluoromethyl)phenyl)oxazol-4-yl)methanone] | -1 | 41
8 | COCCNC(=O)c1nc(-c2ccc(C(F)(F)F)cc2)oc1-c1cccc(SC)c1 [Compound 293, N-(2-Methoxyethyl)-5-(3-(methylthio)phenyl)-2-(4-(trifluoromethyl)phenyl)oxazole-4-carboxamide] | 40 | 107
9 | CN(C)CCNC(=O)c1nc(-c2cc(F)cc(F)c2)oc1-c1ccccc1[N+](=O)[O-] [Compound 237, 2-(3,5-Difluorophenyl)-N-(2-(dimethylamino)ethyl)-5-(2-nitrophenyl)oxazole-4-carboxamide] | -34 | -16
10 | CN(C)CCNC(=O)c1nc(-c2cccc(Cl)c2)oc1-c1ccccc1[N+](=O)[O-] [Compound 242, 2-(3-Chlorophenyl)-N-(2-(dimethylamino)ethyl)-5-(2-nitrophenyl)oxazole-4-carboxamide] | -14 | -12
11 | COc1ccc(-c2nc(C(=O)NCCN3CCN(C)CC3)c(-c3ccc([N+](=O)[O-])cc3)o2)cc1 [Compound 219, 2-(4-methoxyphenyl)-N-(2-(4-methylpiperazin-1-yl)ethyl)-5-(4-nitrophenyl)oxazole-4-carboxamide] | 11 | 44
12 | CN(C)CCNC(=O)c1nc(-c2ccc(-c3ccccc3)cc2)oc1-c1ccccc1[N+](=O)[O-] [Compound 255, 2-([1,1′-Biphenyl]-4-yl)-N-(2-(dimethylamino)ethyl)-5-(2-nitrophenyl)oxazole-4-carboxamide] | -10 | 1
13 | CN(C)CCNC(=O)c1nc(-c2cccc(OC(F)(F)F)c2)oc1-c1ccccc1 [Compound 199, N-(2-(Dimethylamino)ethyl)-5-phenyl-2-(3-(trifluoromethoxy)phenyl)oxazole-4-carboxamide] | 7 | 2
14 | CN(C)CCNC(=O)c1nc(-c2ccccc2C(F)(F)F)oc1-c1ccccc1 [Compound 117, N-(2-(Dimethylamino)ethyl)-5-phenyl-2-(2-(trifluoromethyl)phenyl)oxazole-4-carboxamide] | 4 | 10
15 | COc1ccc(-c2nc(C(=O)NCCN(C)C)c(-c3ccccc3[N+](=O)[O-])o2)cc1 [Compound 214, N-(2-(Dimethylamino)ethyl)-2-(4-methoxyphenyl)-5-(2-nitrophenyl)oxazole-4-carboxamide] | -28 | -49
16 | CCOC(=O)c1nc(-c2ccc(C(F)(F)F)cc2)oc1-c1ccc(N)cc1 [Compound 101, Ethyl 5-(4-aminophenyl)-2-(4-(trifluoromethyl)phenyl)oxazole-4-carboxylate] | 1 | -24
17 | CC(C)N1CCN(C(=O)c2nc(-c3ccc(C(F)(F)F)cc3)oc2-c2ccccc2[N+](=O)[O-])CC1 [Compound 168, (4-Isopropylpiperazin-1-yl)(5-(2-nitrophenyl)-2-(4-(trifluoromethyl)phenyl)oxazol-4-yl)methanone] | 12 | -12

Row | SMILES | inhibition (30 µM) [%] | inhibition (100 µM) [%]
18 | CN(C)CCNC(=O)c1nc(-c2cccc(F)c2)oc1-c1ccccc1[N+](=O)[O-] [Compound 222, N-(2-(Dimethylamino)ethyl)-2-(3-fluorophenyl)-5-(2-nitrophenyl)oxazole-4-carboxamide] | -28 | -16
19 | CN1CCN(CCNC(=O)c2nc(-c3ccc(F)cc3)oc2-c2ccc([N+](=O)[O-])cc2)CC1 [Compound 230, 2-(4-Fluorophenyl)-N-(2-(4-methylpiperazin-1-yl)ethyl)-5-(4-nitrophenyl)oxazole-4-carboxamide] | 15 | 0
20 | CN1CCN(CCNC(=O)c2nc(-c3ccc4ccccc4c3)oc2-c2ccccc2)CC1 [Compound 258, N-(2-(4-Methylpiperazin-1-yl)ethyl)-2-(naphthalen-2-yl)-5-phenyloxazole-4-carboxamide] | 35 | 49
21 | O=C(NCCc1ccc(O)cc1)c1nc(-c2ccc(C(F)(F)F)cc2)oc1-c1ccccc1 [Compound 130, N-(4-Hydroxyphenethyl)-5-phenyl-2-(4-(trifluoromethyl)phenyl)oxazole-4-carboxamide] | 11 | 37
22 | CN1CCN(CCNC(=O)c2nc(-c3cccc(Cl)c3)oc2-c2ccccc2[N+](=O)[O-])CC1 [Compound 243, 2-(3-chlorophenyl)-N-(2-(4-methylpiperazin-1-yl)ethyl)-5-(2-nitrophenyl)oxazole-4-carboxamide] | 14 | -6
23 | CCN(CC)CCN1CCN(C(=O)c2nc(-c3ccc(C(F)(F)F)cc3)oc2-c2ccccc2[N+](=O)[O-])CC1 [Compound 154, (4-(2-(Diethylamino)ethyl)piperazin-1-yl)(5-(2-nitrophenyl)-2-(4-(trifluoromethyl)phenyl)oxazol-4-yl)methanone] | 0 | -25
24 | CN(C)CCNC(=O)c1nc(-c2ccc(C(F)(F)F)cc2)oc1-c1ccccc1 [Compound 126, N-(2-(Dimethylamino)ethyl)-5-phenyl-2-(4-(trifluoromethyl)phenyl)oxazole-4-carboxamide] | -14 | 6
25 | CN(C)CCN1CCN(C(=O)c2nc(-c3cccc(C(F)(F)F)c3)oc2-c2ccccc2[N+](=O)[O-])CC1 [Compound 125, (4-(2-(Dimethylamino)ethyl)piperazin-1-yl)(5-(2-nitrophenyl)-2-(3-(trifluoromethyl)phenyl)oxazol-4-yl)methanone] | 20 | 24
26 | CCOC(=O)c1nc(-c2ccc(-c3ccccc3)cc2)oc1-c1ccccc1 [Compound 81, Ethyl 2-([1,1′-biphenyl]-4-yl)-5-phenyloxazole-4-carboxylate] | 59 | 109
27 | CN1CCN(CCNC(=O)c2nc(-c3ccc([N+](=O)[O-])cc3)oc2-c2ccccc2)CC1 [Compound 276, N-(2-(4-Methylpiperazin-1-yl)ethyl)-2-(4-nitrophenyl)-5-phenyloxazole-4-carboxamide] | 2 | -23
28 | CCOC(=O)c1nc(-c2ccc(Cl)cc2)oc1-c1ccccc1 [Compound 77, Ethyl 2-(4-chlorophenyl)-5-phenyloxazole-4-carboxylate] | 95 | 110
29 | CN(C)CCNC(=O)c1nc(-c2ccc(F)cc2)oc1-c1ccccc1 [Compound 224, N-(2-(Dimethylamino)ethyl)-2-(4-fluorophenyl)-5-phenyloxazole-4-carboxamide] | -13 | -18
30 | CN1CCN(CCNC(=O)c2nc(-c3ccc(F)cc3)oc2-c2ccccc2)CC1 [Compound 225, 2-(4-Fluorophenyl)-N-(2-(4-methylpiperazin-1-yl)ethyl)-5-phenyloxazole-4-carboxamide] | -6 | 7
31 | CN1CCN(CCNC(=O)c2nc(-c3ccc(-c4ccccc4)cc3)oc2-c2ccccc2[N+](=O)[O-])CC1 [Compound 256, 2-([1,1′-Biphenyl]-4-yl)-N-(2-(4-methylpiperazin-1-yl)ethyl)-5-(2-nitrophenyl)oxazole-4-carboxamide] | 3 | 49
32 | CN(C)CCNC(=O)c1nc(-c2ccc(C(F)(F)F)cc2)oc1-c1ccccc1[N+](=O)[O-] [Compound 131, N-(2-(Dimethylamino)ethyl)-5-(2-nitrophenyl)-2-(4-(trifluoromethyl)phenyl)oxazole-4-carboxamide] | 91 | 92
33 | CN1CCN(CCNC(=O)c2nc(-c3ccccc3C(F)(F)F)oc2-c2ccccc2)CC1 [Compound 118, N-(2-(4-Methylpiperazin-1-yl)ethyl)-5-phenyl-2-(2-(trifluoromethyl)phenyl)oxazole-4-carboxamide] | 24 | 36
